Assay results from ChEMBL document CHEMBL2417489, “A structure-activity relationship study of 1,2,4-triazolo[1,5-a][1,3,5]triazin-5,7-dione and its 5-thioxo analogues on anti-thymidine phosphorylase and associated anti-angiogenic activities” (Eur J Med Chem, 2013).
pIC50: −log10 of the molar value. Calls of active or inactive are those of the source. No cut-off for these calls is given here.

Legend:
MDA-MB-231 [1] = details: Homo sapiens, 200 uM
Description: Antiangiogenic activity in human MDA-MB-231 cells assessed as inhibition of PMA-induced MMP-9 expression at 200 uM after 24 hrs by gelatine zymography relative to vehicle-treated control

MDA-MB-231 [2] = details: Homo sapiens, 100 to 200 uM
Description: Antiangiogenic activity in human MDA-MB-231 cells assessed as inhibition of PMA-induced MMP-9 expression at 100 to 200 uM after 24 hrs by densitometric analysis relative to vehicle-treated control

MDA-MB-231 [3] = details: Homo sapiens, 25 to 200 uM
Description: Antiangiogenic activity in human MDA-MB-231 cells assessed as inhibition of VEGF protein expression at 25 to 200 uM after 24 hrs by ELISA relative to vehicle-treated control

Thymidine phosphorylase = target: T1, Thymidine phosphorylase (Homo sapiens, UniProt P19971); test: Inhibition of human recombinant thymidine phosphorylase expressed in Escherichia coli using thymidine as substrate after 4 to 20 mins by spectrophotometry
T1 sequence (P19971 whole entry): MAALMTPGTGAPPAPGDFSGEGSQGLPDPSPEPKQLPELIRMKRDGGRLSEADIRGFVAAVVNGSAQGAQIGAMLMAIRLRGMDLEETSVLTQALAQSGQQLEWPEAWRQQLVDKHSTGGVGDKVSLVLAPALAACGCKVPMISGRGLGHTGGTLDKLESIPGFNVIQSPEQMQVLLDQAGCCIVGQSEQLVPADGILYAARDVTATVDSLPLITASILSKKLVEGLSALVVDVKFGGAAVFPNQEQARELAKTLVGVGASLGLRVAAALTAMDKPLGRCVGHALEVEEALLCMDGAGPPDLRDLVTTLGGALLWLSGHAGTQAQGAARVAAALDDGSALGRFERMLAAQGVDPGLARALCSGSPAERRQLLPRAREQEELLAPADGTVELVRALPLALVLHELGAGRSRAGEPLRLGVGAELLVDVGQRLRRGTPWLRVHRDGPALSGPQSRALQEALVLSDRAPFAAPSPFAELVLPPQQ

MDA-MB-231 [4] = details: Homo sapiens, 50 to 100 uM
Description: Antiangiogenic activity in human MDA-MB-231 cells assessed as inhibition of PMA-induced MMP-9 expression at 50 to 100 uM after 24 hrs by densitometric analysis relative to vehicle-treated control

SMILES | inhibition (MDA-MB-231 [1]) | inhibition (MDA-MB-231 [2]) | inhibition (MDA-MB-231 [3]) | pIC50 (Thymidine phosphorylase) | inhibition (MDA-MB-231 [4])
O=c1[nH]c(=S)[nH]c2nc(-c3ccc(Cl)c(Cl)c3)nn12 | Active | Active | Active | – | –
O=c1[nH]c(=O)n2nc(-c3ccccc3)nc2[nH]1 | – | – | – | < 4.00 | –
O=c1[nH]c(=O)n2nc(Cc3ccccc3)nc2[nH]1 | – | – | – | < 4.00 | –
O=c1[nH]c(=S)[nH]c2nc(Cc3ccc(Cl)c(Cl)c3)nn12 | Active | – | Active | – | inactive
Cc1cc(-c2nc3[nH]c(=S)[nH]c(=O)n3n2)ccc1Br | Active | Active | Active | – | –
